From patent US6452009B1, “4-unsubstituted dihydroisoquinolinone derivatives and combinatorial libraries thereof” (Lion Bioscience AG, priority 1999, dated 2002)

These compounds were tested on Streptococcus pyogenes (ATCC #97-03 14289) (assay: Anti-microbial screen (growth inhibition, OD 570 nm)). Conditions: ATCC97, compounds assayed at 170 μg/ml, growth in Todd Hewitt Broth read at 570 nm at 4 hrs, read-out: % Inhibition.
Format: cell-based
Procedure: Streptococcus pyogenes (ATCC #97-03 14289) are grown in Todd Hewitt Broth (THB) (Difco Laboratories #0492-17-6) overnight until they reach an optical density of (OD=0.636@570 nm) by reading 0.1 ml in a 96 well microtiter plate in a Molecular Devices Thermomax. This preparation is kept frozen as stocks in 30% v/v glycerol in 1.5 ml aliquots at −70° C. until use. Prior to screening, 1.5 ml aliquots are thawed and diluted into 50 ml THB. 200 μl of this dilution is added to 92 wells of microtiter plate. To three wells THB (200 μl) is added to serve as a blank and a sterility control. Test compounds in DMSO and appropriate concentrations of DMSO are added to Growth/Solvent Controls at 0 time. Plates are read at 0 time at 570 nm in the Molecular Devices plate reader to obtain compounds correction factors for insoluble or colored compounds. Plates are read again at 4 hrs.
Compounds are assayed at a concentration of 170 μg/ml. Percent inhibition for each compound is calculated using the following formulae:
Color correct=(O.D. 0 hr −Blank 0 hr)—(Solvent Control 0 hr−Blank 0 hr)
% Inhibition=100−(O.D. test compound 4 hr−Blank 4 hr−color correct) divided by (O.D. growth/solvent control 4 hr−Blank 4 hr)
`CN(C)CCN(CC(N)=O)C(=O)CCN1C(=O)c2cc(NC(=O)c3cccc(C(F)(F)F)c3F)ccc2CC1c1ccc(C(F)(F)F)cc1` (stereo not shown) was tested, and the inhibition at 170 µg/mL was 99.9%. In the case of `CC(CC(=O)Nc1ccc2c(c1)C(=O)N(CCC(=O)N(CC(N)=O)C1CC1)C(c1ccc(F)c(F)c1)C2)CC(C)(C)C` (stereo not shown), the inhibition at 170 µg/mL is reported as 99.7%. `COc1cc(OC)cc(C2Cc3ccc(NC(=O)Cc4cccc(C(F)(F)F)c4)cc3C(=O)N2Cc2ccc(C(=O)N(CCN(C)C)CC(N)=O)cc2)c1` (stereo not shown) showed an inhibition at 170 µg/mL of 99.2%. For `CCCC(CCC)C(=O)Nc1ccc2c(c1)C(=O)N(Cc1ccc(C(=O)N(CCN(C)C)CC(N)=O)cc1)C(c1cc(OC)cc(OC)c1)C2` (stereo not shown), the inhibition at 170 µg/mL was 99.3%. `COc1cc(OC)cc(C2Cc3ccc(NC(=O)c4c(F)c(F)c(C)c(F)c4F)cc3C(=O)N2CCC(=O)N(CCN(C)C)CC(N)=O)c1` (stereo not shown) showed an inhibition at 170 µg/mL of 98.2%. In the case of `CN(C)CCN(CC(N)=O)C(=O)CCN1C(=O)c2cc(NC(=O)c3cnccn3)ccc2CC1c1cccc2ccccc12` (stereo not shown), the inhibition at 170 µg/mL is reported as 99%. `Cc1nnsc1C(=O)Nc1ccc2c(c1)C(=O)N(CCC(=O)N(CCN(C)C)CC(N)=O)C(c1cccc3ccccc13)C2` (stereo not shown) showed an inhibition at 170 µg/mL of 99%. For `CN(C)CCN(CC(N)=O)C(=O)CCN1C(=O)c2cc(NC(=O)c3cc(C(F)(F)F)cc(C(F)(F)F)c3)ccc2CC1c1ccc2ccccc2n1` (stereo not shown), the inhibition at 170 µg/mL was 98.2%. For `CC1CCC(C(=O)Nc2ccc3c(c2)C(=O)N(CCC(=O)N(CCN(C)C)CC(N)=O)C(c2ccc(OCCCN(C)C)cc2)C3)CC1` (stereo not shown), the inhibition at 170 µg/mL was 99%. For `CCCCCCCC(=O)Nc1ccc2c(c1)C(=O)N(CCC(=O)N(CCC)CC(N)=O)C(c1ccc(OCCCN(C)C)cc1)C2` (stereo not shown), the inhibition at 170 µg/mL was 98.8%. For `CN(C)CCN(CC(N)=O)C(=O)c1ccc(CN2C(=O)c3cc(NC(=O)c4ccc(OC(F)(F)F)cc4)ccc3CC2c2ccccn2)cc1` (stereo not shown), the inhibition at 170 µg/mL was 99.5%. Work on `COc1cccc(CN(CC(N)=O)C(=O)CCN2C(=O)c3cc(NC(=O)CC4CC5CCC4C5)ccc3CC2c2ccc(OCCCN(C)C)cc2)c1` (stereo not shown) yielded an inhibition at 170 µg/mL of 98.8%. `CN(C)CCN(CC(N)=O)C(=O)c1ccc(CN2C(=O)c3cc(NC(=O)CCC4CCCC4)ccc3CC2c2ccc(F)c(F)c2)cc1` (stereo not shown) was tested, and the inhibition at 170 µg/mL was 99.9%. `COc1ccc(Br)c(C(=O)Nc2ccc3c(c2)C(=O)N(Cc2ccc(C(=O)N(CC(N)=O)Cc4cccc(C(F)(F)F)c4)cc2)C(c2ccc(OCCCN(C)C)cc2)C3)c1` (stereo not shown) gave an inhibition at 170 µg/mL of 99.4%. Work on `CN(C)CCN(CC(N)=O)C(=O)CCN1C(=O)c2cc(NC(=O)CC3CC4CCC3C4)ccc2CC1c1ccc2ccccc2n1` (stereo not shown) yielded an inhibition at 170 µg/mL of 98.5%. With `CN(C)CCN(CC(N)=O)C(=O)c1ccc(CN2C(=O)c3cc(NC(=O)c4cccc(C(F)(F)F)c4F)ccc3CC2c2ccccc2)cc1` (stereo not shown) the inhibition at 170 µg/mL was 98.3%. Compound `COc1cc(OC)cc(C2Cc3ccc(NC(=O)CC(C)CC(C)(C)C)cc3C(=O)N2CCC(=O)N(CCN(C)C)CC(N)=O)c1` (stereo not shown) has an inhibition at 170 µg/mL of 99%. Work on `CN(C)CCN(CC(N)=O)C(=O)CCN1C(=O)c2cc(NC(=O)c3ccc(I)cc3)ccc2CC1c1ccccn1` (stereo not shown) yielded an inhibition at 170 µg/mL of 99.2%. Compound `CCCCCCCC(=O)Nc1ccc2c(c1)C(=O)N(CCC(=O)N(CCN(C)C)CC(N)=O)C(c1ccc(F)c(F)c1)C2` (stereo not shown) has an inhibition at 170 µg/mL of 98.4%. `CC(CC(=O)Nc1ccc2c(c1)C(=O)N(Cc1ccc(C(=O)N(CCN(C)C)CC(N)=O)cc1)C(c1ccc(C(F)(F)F)cc1)C2)CC(C)(C)C` (stereo not shown) gave an inhibition at 170 µg/mL of 98.7%. `CCCCCC/C=C/C(=O)Nc1ccc2c(c1)C(=O)N(Cc1ccc(C(=O)N(CCOC)CC(N)=O)cc1)C(c1ccc(C(C)(C)C)cc1)C2` (stereo not shown) gave an inhibition at 170 µg/mL of 98.2%. In the case of `Cc1ccc(C2Cc3ccc(NC(=O)COc4ccc5ccccc5c4)cc3C(=O)N2CCC(=O)N(CCN(C)C)CC(N)=O)cc1` (stereo not shown), the inhibition at 170 µg/mL is reported as 99.2%. Work on `CCCCCC/C=C/C(=O)Nc1ccc2c(c1)C(=O)N(CCC(=O)N(CCN(C)C)CC(N)=O)C(c1ncc[nH]1)C2` (stereo not shown) yielded an inhibition at 170 µg/mL of 99.4%. For `COc1cc(OC)cc(C2Cc3ccc(NC(=O)C(=O)c4c(C)cc(C)cc4C)cc3C(=O)N2CCC(=O)N(CCN(C)C)CC(N)=O)c1` (stereo not shown), the inhibition at 170 µg/mL was 99.5%. In the case of `CN(C)CCN(CC(N)=O)C(=O)CCN1C(=O)c2cc(NC(=O)c3cc(C(F)(F)F)cc(C(F)(F)F)c3)ccc2CC1c1ccc(F)c(F)c1` (stereo not shown), the inhibition at 170 µg/mL is reported as 99.2%. `Cc1cc(C)c(C(=O)C(=O)Nc2ccc3c(c2)C(=O)N(CCC(=O)N(CCN(C)C)CC(N)=O)C(c2ccc(C(F)(F)F)cc2)C3)c(C)c1` (stereo not shown) gave an inhibition at 170 µg/mL of 98.9%. `CCCCCCCC(=O)Nc1ccc2c(c1)C(=O)N(CCC(=O)N(CCN(C)C)CC(N)=O)C(c1ccc(C)cc1)C2` (stereo not shown) gave an inhibition at 170 µg/mL of 99.9%. `CN(C)CCN(CC(N)=O)C(=O)c1ccc(CN2C(=O)c3cc(NC(=O)c4cc(C(F)(F)F)cc(C(F)(F)F)c4)ccc3CC2c2ncc[nH]2)cc1` (stereo not shown) was tested, and the inhibition at 170 µg/mL was 98.7%. In the case of `CN(C)CCCOc1ccc(C2Cc3ccc(NC(=O)C4(c5ccccc5)CC4)cc3C(=O)N2Cc2ccc(C(=O)N(CC(N)=O)Cc3cccc(C(F)(F)F)c3)cc2)cc1` (stereo not shown), the inhibition at 170 µg/mL is reported as 98.8%. `CN(C)CCN(CC(N)=O)C(=O)CCN1C(=O)c2cc(NC(=O)COc3ccc4ccccc4c3)ccc2CC1c1ccc(F)c(F)c1` (stereo not shown) was tested, and the inhibition at 170 µg/mL was 99.2%. With `CN(C)CCCOc1ccc(C2Cc3ccc(NC(=O)c4ccc(I)cc4)cc3C(=O)N2CCC(=O)N(CC(N)=O)Cc2cccc(C(F)(F)F)c2)cc1` (stereo not shown) the inhibition at 170 µg/mL was 98.8%. With `CN(C)CCN(CC(N)=O)C(=O)c1ccc(CN2C(=O)c3cc(NC(=O)c4ccc(I)cc4)ccc3CC2c2cccnc2)cc1` (stereo not shown) the inhibition at 170 µg/mL was 98.8%. In the case of `CN(C)CCN(CC(N)=O)C(=O)c1ccc(CN2C(=O)c3cc(NC(=O)CC4CC5CCC4C5)ccc3CC2c2ccc(C(F)(F)F)cc2)cc1` (stereo not shown), the inhibition at 170 µg/mL is reported as 98.1%. `CN(C)CCCOc1ccc(C2Cc3ccc(NC(=O)CCC4CCCC4)cc3C(=O)N2CCC(=O)N(CCN(C)C)CC(N)=O)cc1` (stereo not shown) showed an inhibition at 170 µg/mL of 98.6%. `CN(C)CCCOc1ccc(C2Cc3ccc(NC(=O)c4ccc(I)cc4)cc3C(=O)N2CCC(=O)N(CCN(C)C)CC(N)=O)cc1` (stereo not shown) was tested, and the inhibition at 170 µg/mL was 99.8%. Compound `CN(C)CCN(CC(N)=O)C(=O)CCN1C(=O)c2cc(NC(=O)c3ccco3)ccc2CC1c1cccc2ccccc12` (stereo not shown) has an inhibition at 170 µg/mL of 98.2%. `CN(C)CCCOc1ccc(C2Cc3ccc(NC(=O)COc4ccc5ccccc5c4)cc3C(=O)N2Cc2ccc(C(=O)N(CCN(C)C)CC(N)=O)cc2)cc1` (stereo not shown) was tested, and the inhibition at 170 µg/mL was 98.6%. Compound `Cc1ccc(C2Cc3ccc(NC(=O)c4ccc(F)c(F)c4)cc3C(=O)N2Cc2ccc(C(=O)N(CCN(C)C)CC(N)=O)cc2)cc1` (stereo not shown) has an inhibition at 170 µg/mL of 98.5%. `Cc1cc(C)c(C(=O)C(=O)Nc2ccc3c(c2)C(=O)N(Cc2ccc(C(=O)N(CCN(C)C)CC(N)=O)cc2)C(c2ccc4ccccc4n2)C3)c(C)c1` (stereo not shown) gave an inhibition at 170 µg/mL of 99.2%. `CN(C)CCCOc1ccc(C2Cc3ccc(NC(=O)c4cccc(C(F)(F)F)c4F)cc3C(=O)N2Cc2ccc(C(=O)N(CC(N)=O)Cc3cccc(C(F)(F)F)c3)cc2)cc1` (stereo not shown) gave an inhibition at 170 µg/mL of 99.6%.
